The results in this text go back to patent US11912699B2, “Tau-protein targeting compounds and associated” (Arvinas Operations, Inc., priority 2019, dated 2024).

Some results are limits rather than exact numbers.

Experiment [1] has as its system seeding competent tau species (MC1-positive seeded conformational tau) in ChoK1-Tau P301L cells. Put plainly: Tg2508 ex-vivo seeding of P301L CHO cells, MC1 high content image analysis. Type of experiment: cell-based, Tg2508 mice. Particulars: 24 hours. How it is done: FIGS. 4A, 4B, and 4C. […] Briefly, ChoK1-Tau P301L cells were treated with K18 tau preformed fibrils (PFFs) or extracts from Tg2508 brain samples. Seeded conformational tau species were detected by MC1 antibody positivity and quantified as MC1 spot average intensity per cell on the Image Express high content platform.

The target in a further experiment is T1, Tau P301L (Homo sapiens, UniProt P10636, P618L).
T1 construct: expressed in transfected cells
Put plainly: In vitro tau degradation assay in CHOK1 Tau P301L cells (sarkosyl insoluble tau, WES). Type of experiment: cell-based. The method in brief: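 T-Rex CHOK1 clone D1 with doxycycline-inducible (1 μg/ml) Tau P301L treated 48 h with compound at 1 μM, doxycycline removed for the final 24 h. Sarkosyl-insoluble tau quantified by WES capillary electrophoresis with Tau1 antibody, expressed relative to DMSO doxycycline control and binned as ≤50% or >50% remaining.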

The target of experiment [2] is T2, pathologic tau (Homo sapiens, UniProt P10636, P618L).
T2 construct: tissue Taconic; host or cells: cortex / hippocampus of Tg2508 transgenic mice, sarkosyl-insoluble fraction or brain extract
Put plainly: In vivo tau degradation assay in Tg2508 tauopathy mice (sarkosyl insoluble tau, Wes). The conditions noted are these: Tg2508 mice, 15, 3, 1 or 0.3 mpk parenterally, 24 hours post dose. How it is done:
(§1) FIGS. 3A and 3B. Tg2508 tauopathy mice were dosed (12 animals per group) with either 15 mpk exemplary compound 82 or 30 mpk exemplary compound 382 or vehicle parenterally, as described below (Lewis et al., 2000). Twenty-four hours post dose, the animals were sacrificed and cortical brain samples were analyzed for pathologic tau by Wes capillary gel electrophoresis. FIG. 3A is a graphical representation of the averaged analysis of pathologic tau shown for each animal tested comparing lanes from the vehicle control to either exemplary compound 82 or exemplary compound 382 as indicated in FIG. 3B. Greater than 95% reduction of pathologic tau was observed following treatment of the Tg2508 animals with either exemplary compound 82 or exemplary compound 382.
FIG. 5. Tg2508 animals were dosed with either 15, 3, 1 or 0.3 mpk of bifunctional compound exemplary compound 382 parenterally, as described in materials and methods. Hippocampal extracts were analyzed for either pathologic tau levels by Wes or bifunctional compound levels at each given dose as shown.
In vivo tau Degradation Assay for FIGS. 3A, 3B and 5. […] Hetero-bifunctional degrader molecule concentrations were determined using standand liquid chromatography and mass spectroscopy methodologies (Drumetix).

Experiment [3] concerns the target T3, seeded conformational tau (MC1) (Homo sapiens, UniProt P10636, P618L).
T3 construct: tissue Taconic; host or cells: cortex / hippocampus of Tg2508 transgenic mice, sarkosyl-insoluble fraction or brain extract
The experiment is described as follows: Tg2508 ex-vivo tau seeding assay in ChoK1-Tau P301L cells (MC1 high content imaging). Type of experiment: cell-based, mice. Particulars: 24 hours, MC1 spot intensity in ChoK1-Tau P301L cells. How it is done: FIGS. 4A, 4B, and 4C. Briefly, ChoK1-Tau P301L cells were treated with K18 tau preformed fibrils (PFFs) or extracts from Tg2508 brain samples (as described in Materials and Methods; PFF generation modified from Holmes et al. PNAS. 2014. Proteopathic tau seeding predicts tauopathy in vivo. Oct. 111 (41) E4376-85). Seeded conformational tau species are detected by MC1 antibody positivity and quantified as MC1 spot average intensity per cell on the Image Express™ high content platform.
In vitro tau Seeding Assay for FIGS. 4A, 4B, and 4C. Tau P301L T-Rex CHO Cells were plated on BioCoat Collagen 96 well microplates that were also poly-D-lysine coated. Media was removed, cells were washed with DPBS, trypsinized and plated at 50,000 cells per mL with Doxycycline […] and no doxycycline control for 24 hours. […]

Experiment [4] has as its target T2, pathologic tau. Put plainly: Pathologic tau in Tg2508 brain after intravenous dosing, measured by Wes capillary gel electrophoresis. The conditions noted are these: 15, 3, 1 or 0.3 mpk intravenous, 24 hours post dose, Tg2508 hippocampi. Type of experiment: in vivo, Tg2508 tauopathy mice. As to the method: as §1, with “and 3B. Exemplary bifunctional compounds degrade greater than 95% of pathologic tau in Tg2508 brain following parenteral administration in vivo. Tg2508 tauopathy” for “and 3B. Tg2508 tauopathy”, “or vehicle intravenously. Twenty-four hours” for “or vehicle parenterally, as described below (Lewis et al., 2000). Twenty-four hours”, “animals were sacrificed, and cortical” for “animals were sacrificed and cortical”
FIG. 5. […] Tg2508 animals were dosed with either 15, 3, 1 or 0.3 mpk of bifunctional compound 382 intravenously, as described in materials and methods. Hippocampal extracts were analyzed for either pathologic tau levels by Wes or bifunctional compound levels at each given dose as shown.

Another experiment deals with T4, P301L tau (Homo sapiens, UniProt P10636, P618L).
T4 construct: expressed in transfected cells
The experiment is described as follows: Tau degradation in doxycycline-induced ChoK1-Tau P301L clone D1 cells. The format is cell-based. How it is done: FIGS. 2A, 2B, and 2C. Tau targeting bifunctional molecules are potent P301L tau degraders in vitro, which depends upon both binding to the tau binding moiety and the E3 ligase binding moiety (ULM). (2A) Tau expression was induced by addition (+) of doxycycline (1 μg/ml) to ChoK1-Tau P301L clone D1 for 24 hours followed by a 24 hour doxycycline washout period where only bifunctional molecule was present.

The mark [5] stands for this setting: single parenteral treatment 30 mpk.
Setting [6] is: single parenteral treatment 15 mpk.
The mark [7] stands for this setting: 10-fold molar excess pomalidomide.
[8] abbreviates: similar competition (10-fold molar excess) with flortaucipir.

T4 sequence (P10636 1-441 isoform P10636-8 P301L): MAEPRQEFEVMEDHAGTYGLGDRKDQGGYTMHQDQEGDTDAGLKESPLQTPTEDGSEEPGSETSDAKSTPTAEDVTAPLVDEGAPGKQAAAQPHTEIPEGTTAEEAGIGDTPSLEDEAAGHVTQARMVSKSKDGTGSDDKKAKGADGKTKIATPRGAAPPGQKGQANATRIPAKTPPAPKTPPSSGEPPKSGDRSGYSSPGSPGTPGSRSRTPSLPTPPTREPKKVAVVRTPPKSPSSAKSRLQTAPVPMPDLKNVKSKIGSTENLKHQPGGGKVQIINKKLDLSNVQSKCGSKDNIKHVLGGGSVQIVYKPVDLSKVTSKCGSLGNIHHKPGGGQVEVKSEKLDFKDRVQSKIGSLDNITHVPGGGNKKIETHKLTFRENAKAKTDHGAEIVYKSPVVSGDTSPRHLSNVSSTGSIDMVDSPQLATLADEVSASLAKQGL
T1 sequence (P10636 1-441 isoform P10636-8 P301L): as above
T2 sequence (P10636 1-383 isoform P10636-6 P243L): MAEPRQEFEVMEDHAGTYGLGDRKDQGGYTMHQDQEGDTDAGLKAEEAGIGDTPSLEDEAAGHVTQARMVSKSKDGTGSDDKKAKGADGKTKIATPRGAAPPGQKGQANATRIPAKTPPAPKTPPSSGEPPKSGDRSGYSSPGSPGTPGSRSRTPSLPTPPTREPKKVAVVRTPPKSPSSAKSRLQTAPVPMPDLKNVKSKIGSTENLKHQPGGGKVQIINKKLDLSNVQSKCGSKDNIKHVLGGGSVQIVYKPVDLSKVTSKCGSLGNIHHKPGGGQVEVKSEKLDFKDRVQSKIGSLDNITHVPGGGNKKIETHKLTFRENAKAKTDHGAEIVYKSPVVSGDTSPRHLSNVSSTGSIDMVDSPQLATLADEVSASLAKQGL
T3 sequence (P10636 1-383 isoform P10636-6 P243L): as above

Regarding `Cn1c2ccncc2c2ccc(-c3ccc(N4CC(OC5CCN(CCCCCOc6ccc7c(c6)C(=O)N(C6CCC(=O)NC6=O)C7=O)CC5)C4)nc3)cc21` (stereo not drawn) [Compound 382, 2-(2,6-dioxopiperidin-3-yl)-5-((5-(4-((1-(5-(5-methyl-5H-pyrido[4,3-b]indol-7-yl)pyridin-2-yl)azetidin-3-yl)oxy)piperidin-1-yl)pentyl)oxy) isoindoline-1,3-dione], in experiment [1] (setting [5]), the “seeding competent tau species in Tg2508 cortical brain extracts (MC1 spot average intensity per cell)” value is “effectively degraded”. In addition, the remaining activity at 1 µM on Tau P301L (CHO-K1, remaining tau protein in sarkosyl insoluble pellet, CHOK1 Tau P301L cells treated 48 hours with test compound at 1 μM, doxycycline removed for the last 24 hours, relative to DMSO doxycycline control, read-out: Tau Protein Degradation effect at 1 μM) was less than 50%. At pathologic tau [2], the “concentration of tau protein in hippocampi” value is listed as “dose-dependently reduced”. The “seeding competent tau species in Tg2508 cortical brain extracts” value in experiment [3] (setting [5]) is “effectively degraded”. For the same compound, the “pathologic tau levels in hippocampal extracts” value at pathologic tau [4] is listed as “A clear dose-response relationship is demonstrated”.

What is called DC50 is the concentration giving 50% degradation. A low value points to a more potent degrader. Turning to `Cn1c2ccncc2c2ccc(-c3ccc(O[C@H]4C[C@H](OC5CCN(CCCCCOc6ccc7c(c6)C(=O)N(C6CCC(=O)NC6=O)C7=O)CC5)C4)nc3)cc21` (stereo partly drawn) [Compound 82], the “seeding competent tau species in Tg2508 cortical brain extracts (MC1 spot average intensity per cell)” value in experiment [1] (setting [6]) is “effectively degraded”. The degradation of tau result on P301L tau (250 nM, 125 nM or 50 nM, ChoK1-Tau P301L clone D1, vs 0.1% DMSO) is “concentration-dependent degradation of tau”. Further, the “tau degradation under competition with E3 ligase ligand pomalidomide” value at P301L tau (setting [7]) was “completely inhibited”. Further, the DC50 was less than 50 nM on P301L tau (ChoK1-Tau P301L clone D1, 24 h doxycycline (1 μg/ml) induction, then 24 h washout with only compound present, vs 0.1% DMSO) and less than 50 nM at Tau P301L (ChoK1-Tau P301L clone D1, doxycycline 1 μg/ml, 250, 125, 50 nM). For the same compound, on P301L tau (setting [8]), the “tau degradation under competition with tau warhead ligand flortaucipir” value is given as “Partial inhibition”. Also, the “tau degradation under competition with E3 ligase ligand” value on Tau P301L (setting [7]) was “completely inhibited”. Besides, the “degradation of tau compared to 0.1% DMSO control” value on Tau P301L (ChoK1-Tau P301L clone D1, 250 nM, 125 nM or 50 nM) was “concentration-dependent degradation of tau”. Moreover, the “tau degradation under competition with tau warhead ligand” value at Tau P301L (setting [8]) is “Partial inhibition”. The “seeding competent tau species in Tg2508 cortical brain extracts” value in experiment [3] (setting [6]) is “effectively degraded”.
